Laboratory results taken from ChEMBL document CHEMBL5465560, “Selectivity Literature for EUbOPEN Chemogenomic Library” (2024).
Blank lines part the entries; values can stand above or below the compound they belong to.

Tests used:
[1] = molecular target: Neuronal acetylcholine receptor; alpha4/beta2 (Homo sapiens) (UniProt P17787+P43681); assay: Selectivity interaction (Panel of non-epigenetic targets (kinases, GPCRs, ion channels, and transporters, Eurofins) ) EUB0000271b CHRNA4; type: protein-complex assay; details: at 1 µM
[2] = molecular target: Platelet-derived growth factor receptor beta (Homo sapiens, UniProt P09619); assay: Selectivity interaction (KinomeScan (DiscoverX)) EUB0001079a PDGFRB; details: at 1 µM
[3] = molecular target: STE20-like serine/threonine-protein kinase (Homo sapiens, UniProt Q9H2G2); assay: Selectivity interaction (KinomeScan (DiscoverX)) EUB0000618a SLK; details: at 10 µM
[4] = molecular target: T1, Serine/threonine-protein kinase Nek9 (Homo sapiens) (UniProt Q8TD19); assay: Selectivity interaction (KinomeScan (DiscoverX)) EUB0000045b NEK9
T1 sequence (whole entry): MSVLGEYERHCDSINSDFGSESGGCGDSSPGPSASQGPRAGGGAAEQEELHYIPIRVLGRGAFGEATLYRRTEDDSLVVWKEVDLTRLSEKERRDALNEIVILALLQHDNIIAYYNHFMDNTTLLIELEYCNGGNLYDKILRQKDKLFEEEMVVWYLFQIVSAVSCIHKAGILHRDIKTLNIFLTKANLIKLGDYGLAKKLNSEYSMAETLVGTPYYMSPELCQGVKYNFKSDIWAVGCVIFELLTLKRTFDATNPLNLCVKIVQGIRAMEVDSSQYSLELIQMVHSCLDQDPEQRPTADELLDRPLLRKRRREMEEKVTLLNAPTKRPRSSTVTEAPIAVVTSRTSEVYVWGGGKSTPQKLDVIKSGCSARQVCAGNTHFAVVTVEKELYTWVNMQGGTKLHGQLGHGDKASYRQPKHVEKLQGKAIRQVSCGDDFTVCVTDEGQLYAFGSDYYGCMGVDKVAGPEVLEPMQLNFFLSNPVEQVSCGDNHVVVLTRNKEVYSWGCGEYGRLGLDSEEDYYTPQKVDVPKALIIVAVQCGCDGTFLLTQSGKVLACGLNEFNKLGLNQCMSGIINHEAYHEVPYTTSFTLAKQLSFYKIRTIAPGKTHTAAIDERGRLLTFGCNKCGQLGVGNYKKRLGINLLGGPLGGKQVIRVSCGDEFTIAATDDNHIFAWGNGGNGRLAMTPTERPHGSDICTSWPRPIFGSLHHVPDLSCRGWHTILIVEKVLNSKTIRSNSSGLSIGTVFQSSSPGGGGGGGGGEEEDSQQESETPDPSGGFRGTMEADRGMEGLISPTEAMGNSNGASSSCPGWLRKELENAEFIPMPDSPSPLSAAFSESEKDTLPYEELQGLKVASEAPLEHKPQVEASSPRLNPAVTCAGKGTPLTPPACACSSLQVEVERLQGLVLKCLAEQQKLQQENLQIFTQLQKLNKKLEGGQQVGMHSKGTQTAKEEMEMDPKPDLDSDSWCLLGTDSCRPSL

[5] = molecular target: T2, PAN2-PAN3 deadenylation complex subunit PAN3 (Homo sapiens) (UniProt Q58A45); assay: Selectivity interaction (Kinase panel (KiNativ target engagement assay in Jurkat cells)) EUB0001635a PAN3; type: cell-based; details: Selectivity number of off-targets 0.0, Selectivity number of targets 233.0, Source Knowledge https://www.sciencedirect.com/science/article/pii/S2451945619300674?via%3Dihub, at 1 µM
T2 sequence (whole entry): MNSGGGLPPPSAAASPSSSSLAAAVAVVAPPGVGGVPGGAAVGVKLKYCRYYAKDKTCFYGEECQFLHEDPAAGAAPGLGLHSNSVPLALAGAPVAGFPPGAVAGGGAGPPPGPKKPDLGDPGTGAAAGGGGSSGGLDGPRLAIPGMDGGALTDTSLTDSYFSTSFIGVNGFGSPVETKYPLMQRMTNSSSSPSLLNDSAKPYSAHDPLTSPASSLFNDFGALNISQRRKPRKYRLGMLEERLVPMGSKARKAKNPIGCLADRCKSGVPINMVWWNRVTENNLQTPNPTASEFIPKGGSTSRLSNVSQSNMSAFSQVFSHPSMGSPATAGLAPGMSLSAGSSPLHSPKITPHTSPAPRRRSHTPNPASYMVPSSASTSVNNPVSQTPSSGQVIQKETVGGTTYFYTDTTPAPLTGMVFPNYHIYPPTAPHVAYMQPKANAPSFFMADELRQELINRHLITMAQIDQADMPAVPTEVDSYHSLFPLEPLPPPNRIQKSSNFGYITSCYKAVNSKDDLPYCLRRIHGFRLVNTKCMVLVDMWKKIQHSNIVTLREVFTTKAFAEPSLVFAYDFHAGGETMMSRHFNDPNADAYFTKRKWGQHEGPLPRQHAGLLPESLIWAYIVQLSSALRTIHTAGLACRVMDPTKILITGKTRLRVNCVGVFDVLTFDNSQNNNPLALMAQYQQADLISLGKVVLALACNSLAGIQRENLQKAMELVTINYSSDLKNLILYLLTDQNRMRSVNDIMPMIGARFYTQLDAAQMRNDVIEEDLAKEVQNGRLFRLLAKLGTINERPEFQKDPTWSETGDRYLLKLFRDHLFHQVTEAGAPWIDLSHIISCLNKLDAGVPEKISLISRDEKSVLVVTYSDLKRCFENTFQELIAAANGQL

[6] = molecular target: Ribosomal protein S6 kinase alpha-1 (Homo sapiens, UniProt Q15418); assay: Selectivity interaction (ActivX KiNativ screen (kinase selectivity in THP-1 cell lysates)) EUB0000639a RPS6KA1; type: subcellular; details: lysate, at 1 µM
Vasopressin V2 receptor = Vasopressin V2 receptor (Homo sapiens, UniProt P30518); assay: Selectivity interaction (Vasopressin V2 receptor binding assay, human recombinant ) EUB0000877a AVPR2
Vasopressin V2 receptor, sequence (P30518 whole entry): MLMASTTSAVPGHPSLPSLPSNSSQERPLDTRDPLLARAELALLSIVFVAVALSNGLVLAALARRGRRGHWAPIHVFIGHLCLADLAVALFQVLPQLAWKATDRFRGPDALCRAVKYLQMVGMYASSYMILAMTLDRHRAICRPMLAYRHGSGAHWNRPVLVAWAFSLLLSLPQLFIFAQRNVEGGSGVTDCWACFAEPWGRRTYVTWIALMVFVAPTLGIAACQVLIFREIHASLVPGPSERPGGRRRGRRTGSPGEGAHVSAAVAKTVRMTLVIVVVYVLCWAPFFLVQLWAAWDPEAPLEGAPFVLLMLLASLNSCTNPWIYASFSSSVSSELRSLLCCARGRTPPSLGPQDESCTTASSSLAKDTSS

STE20-like serine/threonine-protein kinase, sequence (Q9H2G2 whole entry, looked up): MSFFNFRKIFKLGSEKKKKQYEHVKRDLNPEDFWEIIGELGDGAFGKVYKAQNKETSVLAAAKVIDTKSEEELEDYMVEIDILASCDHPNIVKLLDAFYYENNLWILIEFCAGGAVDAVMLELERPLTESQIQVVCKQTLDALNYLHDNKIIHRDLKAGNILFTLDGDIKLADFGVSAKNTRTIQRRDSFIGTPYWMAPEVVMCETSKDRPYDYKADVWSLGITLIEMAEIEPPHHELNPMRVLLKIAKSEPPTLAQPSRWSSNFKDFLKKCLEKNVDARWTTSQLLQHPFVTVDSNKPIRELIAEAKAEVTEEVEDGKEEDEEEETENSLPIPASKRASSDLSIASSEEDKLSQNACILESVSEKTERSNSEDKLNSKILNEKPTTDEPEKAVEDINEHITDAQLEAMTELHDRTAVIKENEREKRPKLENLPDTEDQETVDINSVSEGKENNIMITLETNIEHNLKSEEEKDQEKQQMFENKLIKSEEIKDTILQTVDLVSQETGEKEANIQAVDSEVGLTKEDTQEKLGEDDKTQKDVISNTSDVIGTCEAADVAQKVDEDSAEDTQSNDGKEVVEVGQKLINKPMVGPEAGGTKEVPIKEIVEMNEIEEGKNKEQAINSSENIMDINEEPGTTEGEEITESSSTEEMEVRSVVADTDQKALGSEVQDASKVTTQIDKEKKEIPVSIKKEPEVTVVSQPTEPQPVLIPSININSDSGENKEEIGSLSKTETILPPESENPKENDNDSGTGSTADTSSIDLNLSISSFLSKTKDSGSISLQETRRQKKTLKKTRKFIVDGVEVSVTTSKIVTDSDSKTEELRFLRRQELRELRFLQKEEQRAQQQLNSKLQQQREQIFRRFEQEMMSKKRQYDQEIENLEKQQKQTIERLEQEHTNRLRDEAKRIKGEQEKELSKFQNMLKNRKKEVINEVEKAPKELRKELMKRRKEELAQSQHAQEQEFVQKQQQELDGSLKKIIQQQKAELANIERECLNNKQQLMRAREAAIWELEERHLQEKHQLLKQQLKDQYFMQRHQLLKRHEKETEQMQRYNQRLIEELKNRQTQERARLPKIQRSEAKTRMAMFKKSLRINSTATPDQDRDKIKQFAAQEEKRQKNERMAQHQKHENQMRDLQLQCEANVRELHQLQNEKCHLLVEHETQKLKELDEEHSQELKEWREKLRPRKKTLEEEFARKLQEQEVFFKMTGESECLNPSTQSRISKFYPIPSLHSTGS
Ribosomal protein S6 kinase alpha-1, sequence (Q15418 whole entry): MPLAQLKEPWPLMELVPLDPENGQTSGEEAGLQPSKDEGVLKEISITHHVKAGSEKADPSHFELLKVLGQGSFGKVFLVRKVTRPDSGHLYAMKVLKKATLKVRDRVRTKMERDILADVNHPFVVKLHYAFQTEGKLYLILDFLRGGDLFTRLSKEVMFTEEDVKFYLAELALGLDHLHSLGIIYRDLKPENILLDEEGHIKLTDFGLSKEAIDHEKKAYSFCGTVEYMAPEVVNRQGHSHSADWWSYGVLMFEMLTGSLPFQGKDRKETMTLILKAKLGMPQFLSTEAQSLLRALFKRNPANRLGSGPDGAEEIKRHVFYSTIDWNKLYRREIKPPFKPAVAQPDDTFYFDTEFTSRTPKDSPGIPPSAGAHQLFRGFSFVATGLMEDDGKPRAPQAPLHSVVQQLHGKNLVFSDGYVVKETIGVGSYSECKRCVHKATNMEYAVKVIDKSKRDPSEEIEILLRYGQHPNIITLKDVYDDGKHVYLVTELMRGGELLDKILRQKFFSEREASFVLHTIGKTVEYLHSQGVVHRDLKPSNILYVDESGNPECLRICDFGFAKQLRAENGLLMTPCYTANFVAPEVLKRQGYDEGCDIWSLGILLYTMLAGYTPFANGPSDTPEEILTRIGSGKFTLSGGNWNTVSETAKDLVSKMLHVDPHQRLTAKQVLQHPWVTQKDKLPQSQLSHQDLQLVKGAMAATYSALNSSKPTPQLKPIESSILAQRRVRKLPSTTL
Platelet-derived growth factor receptor beta, sequence (P09619 whole entry): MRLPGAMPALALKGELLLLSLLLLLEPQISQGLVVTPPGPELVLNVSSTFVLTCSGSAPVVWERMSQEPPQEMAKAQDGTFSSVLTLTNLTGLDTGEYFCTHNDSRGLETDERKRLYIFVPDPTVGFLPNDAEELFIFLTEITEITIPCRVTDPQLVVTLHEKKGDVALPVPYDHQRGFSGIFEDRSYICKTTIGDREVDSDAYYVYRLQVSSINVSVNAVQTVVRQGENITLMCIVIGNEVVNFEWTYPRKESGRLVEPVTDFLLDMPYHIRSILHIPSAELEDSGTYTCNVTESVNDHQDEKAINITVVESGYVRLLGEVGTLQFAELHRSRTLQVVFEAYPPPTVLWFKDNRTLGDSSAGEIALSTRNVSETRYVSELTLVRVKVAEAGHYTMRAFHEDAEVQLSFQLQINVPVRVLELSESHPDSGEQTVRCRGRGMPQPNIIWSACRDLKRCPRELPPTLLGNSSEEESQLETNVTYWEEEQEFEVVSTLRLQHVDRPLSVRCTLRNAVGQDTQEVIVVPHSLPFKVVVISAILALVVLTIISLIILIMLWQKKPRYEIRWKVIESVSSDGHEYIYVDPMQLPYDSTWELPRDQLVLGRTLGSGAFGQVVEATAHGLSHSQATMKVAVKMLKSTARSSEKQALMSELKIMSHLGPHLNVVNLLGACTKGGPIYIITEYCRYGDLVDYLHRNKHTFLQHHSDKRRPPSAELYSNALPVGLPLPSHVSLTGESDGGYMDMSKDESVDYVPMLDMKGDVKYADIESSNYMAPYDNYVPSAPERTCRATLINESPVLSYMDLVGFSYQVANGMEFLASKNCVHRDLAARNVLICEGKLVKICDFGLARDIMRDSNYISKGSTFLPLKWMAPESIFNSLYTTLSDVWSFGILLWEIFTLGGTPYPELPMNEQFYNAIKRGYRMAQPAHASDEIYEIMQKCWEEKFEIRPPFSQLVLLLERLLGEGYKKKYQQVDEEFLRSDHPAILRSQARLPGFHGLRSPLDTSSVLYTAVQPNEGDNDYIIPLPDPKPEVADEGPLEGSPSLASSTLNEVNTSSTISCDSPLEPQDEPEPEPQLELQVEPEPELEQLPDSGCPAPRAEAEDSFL

SMILES: Cc1cc(C)cc([C@@H]2c3cc(C)ccc3NC(=O)CN2C(=O)c2ccc(Br)s2)c1
% of inhibition [1]: -18%

SMILES: Nc1cnc(N2CCc3cc(S(=O)(=O)Nc4c(F)cc(Cl)cc4F)cc(N4CCCC4=O)c32)nc1 [TP-020n]
% of control [2]: 100%

SMILES: O[C@H]1CC[C@H](Nc2ncc3nc(Nc4c(F)cc(F)cc4F)n([C@H]4CCOC4)c3n2)CC1
% of control [3]: 88%

SMILES: C=CC(=O)Nc1cc(-n2c(=O)ccc3cnc4ccc(-c5ccc(NS(C)(=O)=O)cc5)cc4c32)ccc1C
% of control ([4]; at 1 µM): 100%
% of control ([4]; at 10 µM): 65%

SMILES: C=CC(=O)Nc1ccc(C(=O)Nc2[nH]nc3c2CN(C(=O)N[C@H](CN(C)C)c2ccccc2)C3(C)C)cc1
% of engagement [5]: -3.3%

% of inhibition [6]: 8.6%
SMILES: CC[C@@H]1[C@H](F)C(=O)N[C@@H]1COc1nccc2cc(C(N)=O)c(OC)cc12 [ZIMLOVISERTIB]

IC50 (Vasopressin V2 receptor): > 30 µM
SMILES: CCC(=O)N1CC[C@H](Nc2ncnc3c2CN(c2cnc(OC)c(C(F)(F)F)c2)CC3)C1 [LENIOLISIB]
